Patent US8962527B2, “Process for preparation of herbicidal salts” (Nufarm Australia Limited, priority 2010, dated 2015)

How the values were obtained:
[1] = Hygroscopicity of the finished product; type: physicochemical; details: dried solid product
[2] = pH of 3% solution of the finished product in H2O; type: physicochemical; details: 3% solution in H2O
Method: The reaction was monitored by addition of small amounts of reaction mixture to water. When the mixture provides a pH of 8 and remains at this pH the reaction was considered complete. The product was filtered and dried at temperature not greater than 60° C. The mother liquor is made up with fresh MTBE, ready for the next batch.

SMILES: CNC.Cc1cc(Cl)ccc1OC(C)C(=O)O (centres unmarked) [Example 3, MCPP/DMA Salt]
- hygroscopicity of product [1]: extremely hydroscopic
- pH [2]: 5.8-6.3

SMILES: CNC.Cc1cc(Cl)ccc1OCC(=O)O [Example 1, MCPA/DMA Salt]
- hygroscopicity of product [1]: extremely hydroscopic
- pH [2]: 5.5-6.5

SMILES: CNC.COc1c(Cl)ccc(Cl)c1C(=O)O [Example 2, Dicamba/DMA Salt]
- hygroscopicity of product [1]: extremely hydroscopic
- pH [2]: 5.5-6.5

SMILES: CC(Oc1ccc(Cl)cc1Cl)C(=O)O.CNC (centres unmarked) [Example 4, 2,4-DP/DMA Salt]
- hygroscopicity of product [1]: not hydroscopic
- pH [2]: 5.8-6.5
